Test results published in PMC6177235 (Bioorganic & medicinal chemistry, 2018).
In brackets after ≈: the same amount, converted by molar mass. Entries after “also recorded” stand apart in the source; their conditions may differ.

How the values were obtained:
[1] = tested on: OVCAR3 human ovarian cancer cell line; assay: Cytotoxicity assay, OVCAR3 cells; assay type: cell-based; conditions: OVCAR-3, 72 h, read-out: IC50 toward OVCAR3 cells
[2] = tested on: DU145 human prostate cancer cells; conditions: prostate tumor model; cited from earlier work
NF-κB p65 in HeLa cells = NF-κB p65 in HeLa cells (Homo sapiens, UniProt Q04206); assay: Enzyme-based ELISA assay for NF-κB inhibition; assay type: cell-based
Sequence of NF-κB p65 in HeLa cells (Q04206 whole entry): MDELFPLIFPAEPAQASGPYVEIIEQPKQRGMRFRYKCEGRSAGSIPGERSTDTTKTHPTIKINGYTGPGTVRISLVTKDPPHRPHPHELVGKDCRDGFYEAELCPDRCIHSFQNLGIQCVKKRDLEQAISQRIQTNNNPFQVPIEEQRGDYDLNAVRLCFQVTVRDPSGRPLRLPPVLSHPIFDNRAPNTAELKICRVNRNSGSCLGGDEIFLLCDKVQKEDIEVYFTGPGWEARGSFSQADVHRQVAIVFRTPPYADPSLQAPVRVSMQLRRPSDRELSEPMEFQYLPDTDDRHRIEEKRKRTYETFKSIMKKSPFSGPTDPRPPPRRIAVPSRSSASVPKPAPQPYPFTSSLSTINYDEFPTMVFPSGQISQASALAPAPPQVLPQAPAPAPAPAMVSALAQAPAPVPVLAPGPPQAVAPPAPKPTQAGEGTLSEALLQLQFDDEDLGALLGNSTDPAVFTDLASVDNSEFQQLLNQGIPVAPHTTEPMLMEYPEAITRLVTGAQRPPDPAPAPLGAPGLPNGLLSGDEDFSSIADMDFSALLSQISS

[3] = tested on: mitochondrial transmembrane potential (MTP) in HT-29 cells; assay: Mitochondrial transmembrane potential; assay type: cell-based, human
[4] = Cytotoxicity assays, statements on the whole panel of cell lines; conditions: human
[5] = tested on: HT-29, MDA-MB-231, MDA-MB-435 and OVCAR3 human cancer cell lines; assay: as above; conditions: all cytotoxicity assays used
melanoma tumor = conditions: cited from earlier work
in vitro = conditions: human

| Compound | activity in the NF-κB inhibition assay (in words) (NF-κB p65 in HeLa cells) | activity in the MTP inhibition assay (in words) [3] | IC50 at 72 h [4] | activity in the cytotoxicity assays (in words) [5] | also measured |
| --- | --- | --- | --- | --- | --- |
| C[C@H]1[C@H](C)CC[C@]2(C(=O)O)CC[C@]3(C)C(=CC[C@@H]4[C@@]5(C)CC[C@H](O)C(C)(C)[C@@H]5CC[C@]43C)[C@H]12 [Compound 1, (+)-ursolic acid] |  |  |  |  | IC50 [1]: 12.9 µg/mL (≈ 28.2 µM); mouse body weight [2]: without significant decrease |
| C=C(C)[C@@H]1CC[C@]2(C(=O)O)CC[C@]3(C)[C@H](CC[C@@H]4[C@@]5(C)CC[C@H](OC(=O)/C=C/c6ccc(O)c(OC)c6)C(C)(C)[C@@H]5CC[C@]43C)[C@@H]12 [S13, (+)-3β-O−tram,-feruloylbetulinic acid] | exhibited activity | active | > 10 µM |  |  |
| CC1(C)CC[C@]2(CO)CC[C@]3(C)C(=CC[C@@H]4[C@@]5(C)CC[C@H](O)C(C)(C)[C@@H]5CC[C@]43C)[C@@H]2C1 [Compound 11, (+)-erythrodiol] | did not show any activities | did not show any activities |  | did not show any activities |  |
| C[C@H]1[C@H](C)CC[C@]2(CO)CC[C@]3(C)C(=CC[C@@H]4[C@@]5(C)CC[C@H](O)C(C)(C)[C@@H]5CC[C@]43C)[C@H]12 [Compound 10, (+)-uvaol] | did not show any activities | did not show any activities |  | did not show any activities |  |
| C=C(C)[C@@H]1CC[C@]2(C(=O)O)CC[C@]3(C(=O)O)[C@H](CC[C@@H]4[C@@]5(C)CC[C@H](O)C(C)(C)[C@@H]5CC[C@]43C)[C@@H]12 [Compound 4, (+)-melaleucic acid] |  |  | > 10 µM |  |  |
| C=C(C)[C@@H]1CC[C@]2(C(=O)O)CC[C@]3(CO)[C@H](CC[C@@H]4[C@@]5(C)CC[C@H](O)C(C)(C)[C@@H]5CC[C@]43C)[C@@H]12 [Compound 6, (+)-cylicodiscic acid] |  |  | > 10 µM |  |  |
| C=C(C)[C@@H]1CC[C@]2(C(=O)O)CC[C@]3(C)[C@H](CC[C@@H]4[C@@]5(C)C[C@@H](O)[C@H](O)C(C)(C)[C@@H]5CC[C@]43C)[C@@H]12 [Compound 5, (+)-alphitolic acid] | exhibited activity |  | > 10 µM |  |  |
| C=C(C)[C@@H]1CC[C@]2(CO)CC[C@]3(C)[C@H](CC[C@@H]4[C@@]5(C)CC[C@H](O)C(C)(C)[C@@H]5CC[C@]43C)[C@@H]12 [Compound 12, (+)-betulin] | exhibited activity | did not show any activities; also recorded: inactive | > 10 µM | did not show any activities |  |
| CC1(C)CC[C@]2(C(=O)O)CC[C@]3(C)C(=CC[C@@H]4[C@@]5(C)CC[C@H](O)C(C)(C)[C@@H]5CC[C@]43C)[C@@H]2C1 [Compound 8, (+)-oleanolic acid] |  | inactive |  | Neither 8 nor 9 showed activity |  |
| C=C(C)[C@@H]1CC[C@]2(C(=O)O)CC[C@]3(C)[C@H](CC[C@@H]4[C@@]5(C)CC[C@H](O)C(C)(C)[C@@H]5CC[C@]43C)[C@@H]12 [Compound 9, (+)-betulinic acid] |  | same potency as 1; also recorded: active |  | Neither 8 nor 9 showed activity | melanoma tumor growth in vivo (melanoma tumor; mice): inhibit completely; toxicity observed in mice (melanoma tumor; mouse, in vivo): without any obvious toxicity |
| C=C(C)[C@@H]1CC[C@]2(C(=O)O)CC[C@]3(C)[C@H](CC[C@@H]4[C@@]5(C)C[C@@H](O)[C@H](OC(=O)/C=C/c6ccc(O)cc6)C(C)(C)[C@@H]5CC[C@]43C)[C@@H]12 [Compound 7, (+)-3-O−β-trans-p−coumaroylalphitolic acid] | exhibited activity |  |  |  | IC50 at 72 h (in vitro): > 10 µM |
| C=C(C)[C@@H]1CC[C@]2(C(=O)OC)CC[C@]3(C(=O)O)[C@H](CC[C@@H]4[C@@]5(C)CC[C@H](O)C(C)(C)[C@@H]5CC[C@]43C)[C@@H]12 [Compound 3, (+)-melaleucic acid 28-methyl ester] | exhibited activity |  | > 10 µM |  |  |
